Data: PMC4853826 (European heart journal. Cardiovascular pharmacotherapy, 2015)
Several values for one entry are separate records, joined by “and”; a condition that tells them apart may be missing. Identical values can stand only once.

Tests used:
[1] = system: normal canines; assay: In vivo renal function, peptide infusion in normal canines; parameters: species or system canine; details: for RBF / GFR / DFRNa (distal fractional reabsorption of Na+) / PFRNa (proximal fractional reabsorption of Na+) / MAP: SEM
[2] = system: neprilysin (NEP); details: cited from earlier work
[3] = Post-I (after 30-min washout), lithium clearance, mean ± SEM
[4] = Pre-I (prior to infusion, baseline), lithium clearance technique, mean ± SEM
[5] = normal canines, infusion 32 mmol/kg/min

CNP: native C-type natriuretic peptide, 22 amino acids, selective pGC-B activator
RBF ([1]; 30 min I (16th-45th min of infusion, 32 mmol/kg/min), mean ± SEM): 294 ± 31 mL/min | RBF ([1]; 60 min I (46th-75th min of infusion, 32 mmol/kg/min), mean ± SEM): 278 ± 29 mL/min | GFR ([1]; Post-I (after 30-min washout), inulin clearance, mean ± SEM): 48.8 ± 5.6 mL/min | DFRNa (distal fractional reabsorption of Na+) [1, 3]: 97±0.8% | PFRNa (proximal fractional reabsorption of Na+) [1, 3]: 73±2% | RBF ([1]; Post-I (after 30-min washout), mean ± SEM): 270 ± 25 mL/min | RBF ([1]; Pre-I (prior to infusion, baseline), electromagnetic flow probe, mean ± SEM): 273 ± 26 mL/min | DFRNa (distal fractional reabsorption of Na+) [1, 4]: 98±0.6% | PFRNa (proximal fractional reabsorption of Na+) [1, 4]: 80±3% | MAP ([1]; dog, in vivo, iv): 127±4 mmHg and 128±4 mmHg | GFR ([1]; dog, in vivo): 52.3 ± 5.1 mL/min | MAP ([1]; dog, in vivo): 123±4 mmHg and 128±4 mmHg | net renal generation of cGMP (in words) [1, 5]: unchanged | plasma cGMP (in words) [1, 5]: modestly increased | urinary cGMP excretion (in words) [1, 5]: unchanged | susceptibility to enzymatic degradation by NEP (in words) [2]: highly susceptible
